Measurements: patent US9487529B2, “Macrocyclic compounds as ALK, FAK and JAK2 inhibitors” (Cephalon, Inc., priority 2011, dated 2016)
Like-named read-outs stand apart in the source and are kept apart here.

How the values were obtained:
[1] = target: T1, human insulin receptor cytoplasmic domain (βIRCD) (Homo sapiens, UniProt P06213); experiment: Insulin Receptor Kinase Assay (TRF); type: biochemical; settings: 20 μM ATP, read-out: IR IC50
T1 construct: human insulin receptor cytoplasmic domain (βIRCD); host or cells: baculovirus expression system
T1 sequence (P06213 980-1382 limits assumed): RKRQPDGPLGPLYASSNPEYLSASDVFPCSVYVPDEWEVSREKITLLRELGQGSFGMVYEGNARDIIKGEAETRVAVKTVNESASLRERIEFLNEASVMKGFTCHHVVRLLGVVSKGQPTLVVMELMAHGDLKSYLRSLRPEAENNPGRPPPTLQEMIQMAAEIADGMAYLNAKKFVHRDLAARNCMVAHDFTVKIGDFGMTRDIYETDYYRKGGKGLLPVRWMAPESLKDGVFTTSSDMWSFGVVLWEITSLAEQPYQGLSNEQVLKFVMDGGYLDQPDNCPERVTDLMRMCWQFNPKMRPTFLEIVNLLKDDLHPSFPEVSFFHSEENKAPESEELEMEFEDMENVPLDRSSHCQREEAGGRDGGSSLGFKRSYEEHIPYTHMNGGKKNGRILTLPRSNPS
Experimental: Example compounds were tested for their ability to inhibit the kinase activity of baculovirus-expressed human insulin receptor cytoplasmic domain (βIRCD) using the TRF assay as described above for ALK. Phosphorylation of the substrate, recombinant GST-PLC-γ, was detected with a europium-labeled anti-phosphotyrosine antibody and measured by TRF. Each 96-well plate (Greiner#655074) was coated with 100 μL/well of 20 μg/mL substrate solution in TBS. The IR assay mixture (total volume=100 μL/well) consisting of 20 mM HEPES (pH 7.2), 20 μM ATP, 5 mM MnCl2, 0.1% BSA, and test compound (diluted in DMSO; 2.5% DMSO final in assay) was added to the assay plates. Enzyme (20 ng/mL βIRCD) was added and the reaction was allowed to proceed at room temperature for 20 minutes. Detection of the phosphorylated product was performed by adding 100 μL/well of Eu—N1 labeled PY100 antibody (PerkinElmer#AD0160; diluted 1:10,000 in TBS-T containing 0.25% BSA). Incubation at 37° C. for 1 hour was followed by addition of 50 μL enhancement solution (Wallace#1244-105). Plates were agitated for 10 minutes and the fluorescence was measured using the PerkinElmer EnVision™ 2102 or 2104 multi-label plate reader.
(§1) Data analysis was performed using ActivityBase (IDBS, Guilford, UK). IC50 values were calculated by plotting percent inhibition versus log10 of the concentration of compound and fitting to the nonlinear regression sigmoidal dose-response (variable slope) equation in XLFit (IDBS, Guilford, UK).

[2] = target: T2, recombinant human FAK (Homo sapiens, UniProt Q05397); experiment: FAK Enzyme Assay (TRF detection); type: biochemical; settings: 10 μM ATP
T2 construct: purchased Invitrogen PV3832; host or cells: baculovirus expression system
T2 sequence (Q05397 whole entry): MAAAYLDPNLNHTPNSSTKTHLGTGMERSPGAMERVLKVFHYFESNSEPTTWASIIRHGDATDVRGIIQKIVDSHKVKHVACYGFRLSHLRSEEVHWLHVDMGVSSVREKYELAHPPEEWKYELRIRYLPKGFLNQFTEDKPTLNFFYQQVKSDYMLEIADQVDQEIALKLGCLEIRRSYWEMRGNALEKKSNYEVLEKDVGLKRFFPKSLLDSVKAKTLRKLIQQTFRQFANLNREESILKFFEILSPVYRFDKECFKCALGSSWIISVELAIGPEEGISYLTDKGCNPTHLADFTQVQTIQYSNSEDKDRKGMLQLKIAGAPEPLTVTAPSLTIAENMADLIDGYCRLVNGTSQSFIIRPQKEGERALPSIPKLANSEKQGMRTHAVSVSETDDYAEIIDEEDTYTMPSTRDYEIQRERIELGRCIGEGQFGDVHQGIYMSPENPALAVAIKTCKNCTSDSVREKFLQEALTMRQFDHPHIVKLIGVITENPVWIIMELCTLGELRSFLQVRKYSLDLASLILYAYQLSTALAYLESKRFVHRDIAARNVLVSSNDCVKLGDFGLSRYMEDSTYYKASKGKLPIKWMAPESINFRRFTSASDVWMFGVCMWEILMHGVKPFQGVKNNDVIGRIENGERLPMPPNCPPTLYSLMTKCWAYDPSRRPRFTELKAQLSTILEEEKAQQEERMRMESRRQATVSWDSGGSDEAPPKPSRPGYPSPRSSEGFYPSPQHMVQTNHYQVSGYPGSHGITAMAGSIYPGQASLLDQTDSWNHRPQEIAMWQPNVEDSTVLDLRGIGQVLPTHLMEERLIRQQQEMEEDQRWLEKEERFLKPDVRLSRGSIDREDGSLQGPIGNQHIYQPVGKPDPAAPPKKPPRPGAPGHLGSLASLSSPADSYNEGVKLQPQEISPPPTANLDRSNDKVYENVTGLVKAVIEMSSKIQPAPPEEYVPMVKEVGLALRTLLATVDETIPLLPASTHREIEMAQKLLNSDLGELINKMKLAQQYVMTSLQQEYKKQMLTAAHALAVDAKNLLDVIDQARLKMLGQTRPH
Experimental: Example compounds were tested for their ability to inhibit the kinase activity of baculovirus-expressed recombinant human FAK using the TRF detection system as described above for JAK2. IC50 runs were performed in 96-well Costar high binding plates (#3922). The plates were coated first with 100 μL/well of 10 μg/mL neutravidin in TBS at 37° C. for 2 h, followed by 100 μL/well of 1 μg/mL 15-mer peptide substrate (biotinyl-amino-hexanoyl-EQEDEPEGDYFEWLE-amide) at 37° C. for another hour. The FAK assay mixture (total volume=100 μL/well) consisting of 20 mM HEPES, pH 7.2, 10 μM ATP, 5 mM MgCl2, 0.5 mM DTT, 0.1% BSA, and test compound (diluted in DMSO; 2.5% DMSO final in assay) was then added to the assay plate. Enzyme (10 ng/mL FAK, Invitrogen #PV3832) was added and the reaction was allowed to proceed at room temperature for 30 minutes. Detection of the phosphorylated product was performed by adding 100 μL/well of Eu—N1 labeled PY100 antibody (diluted 1:75000 in antibody dilution buffer). Samples were incubated at room temperature for 1 hour, followed by addition of 100 μL enhancement solution. Plates were agitated for 10 minutes and fluorescence of the resulting solution measured using the PerkinElmer EnVision™ 2102 (or 2104) multi-label plate reader.
as §1

[3] = from C=Cc1ccc(N(C)S(C)(=O)=O)c(Nc2nc(Nc3cc(Br)c(N4CCN(C)CC4)cc3OC)ncc2Cl)c1; cc_pd bond; Pd(OAc)2 / tri-o-tolylphosphine, Et3N; CH3CN; 46.7 mM; 120.0 °C; 0.25 h
[4] = target: T3, baculovirus-expressed ALK (Homo sapiens, UniProt Q9UM73); experiment: ALK Kinase Assay (ELISA/TRF); type: biochemical; settings: 1 μM ATP (Km level); average of two or more determinations; class symbols
T3 construct: host or cells: baculovirus expression system
T3 sequence (Q9UM73 19-1620): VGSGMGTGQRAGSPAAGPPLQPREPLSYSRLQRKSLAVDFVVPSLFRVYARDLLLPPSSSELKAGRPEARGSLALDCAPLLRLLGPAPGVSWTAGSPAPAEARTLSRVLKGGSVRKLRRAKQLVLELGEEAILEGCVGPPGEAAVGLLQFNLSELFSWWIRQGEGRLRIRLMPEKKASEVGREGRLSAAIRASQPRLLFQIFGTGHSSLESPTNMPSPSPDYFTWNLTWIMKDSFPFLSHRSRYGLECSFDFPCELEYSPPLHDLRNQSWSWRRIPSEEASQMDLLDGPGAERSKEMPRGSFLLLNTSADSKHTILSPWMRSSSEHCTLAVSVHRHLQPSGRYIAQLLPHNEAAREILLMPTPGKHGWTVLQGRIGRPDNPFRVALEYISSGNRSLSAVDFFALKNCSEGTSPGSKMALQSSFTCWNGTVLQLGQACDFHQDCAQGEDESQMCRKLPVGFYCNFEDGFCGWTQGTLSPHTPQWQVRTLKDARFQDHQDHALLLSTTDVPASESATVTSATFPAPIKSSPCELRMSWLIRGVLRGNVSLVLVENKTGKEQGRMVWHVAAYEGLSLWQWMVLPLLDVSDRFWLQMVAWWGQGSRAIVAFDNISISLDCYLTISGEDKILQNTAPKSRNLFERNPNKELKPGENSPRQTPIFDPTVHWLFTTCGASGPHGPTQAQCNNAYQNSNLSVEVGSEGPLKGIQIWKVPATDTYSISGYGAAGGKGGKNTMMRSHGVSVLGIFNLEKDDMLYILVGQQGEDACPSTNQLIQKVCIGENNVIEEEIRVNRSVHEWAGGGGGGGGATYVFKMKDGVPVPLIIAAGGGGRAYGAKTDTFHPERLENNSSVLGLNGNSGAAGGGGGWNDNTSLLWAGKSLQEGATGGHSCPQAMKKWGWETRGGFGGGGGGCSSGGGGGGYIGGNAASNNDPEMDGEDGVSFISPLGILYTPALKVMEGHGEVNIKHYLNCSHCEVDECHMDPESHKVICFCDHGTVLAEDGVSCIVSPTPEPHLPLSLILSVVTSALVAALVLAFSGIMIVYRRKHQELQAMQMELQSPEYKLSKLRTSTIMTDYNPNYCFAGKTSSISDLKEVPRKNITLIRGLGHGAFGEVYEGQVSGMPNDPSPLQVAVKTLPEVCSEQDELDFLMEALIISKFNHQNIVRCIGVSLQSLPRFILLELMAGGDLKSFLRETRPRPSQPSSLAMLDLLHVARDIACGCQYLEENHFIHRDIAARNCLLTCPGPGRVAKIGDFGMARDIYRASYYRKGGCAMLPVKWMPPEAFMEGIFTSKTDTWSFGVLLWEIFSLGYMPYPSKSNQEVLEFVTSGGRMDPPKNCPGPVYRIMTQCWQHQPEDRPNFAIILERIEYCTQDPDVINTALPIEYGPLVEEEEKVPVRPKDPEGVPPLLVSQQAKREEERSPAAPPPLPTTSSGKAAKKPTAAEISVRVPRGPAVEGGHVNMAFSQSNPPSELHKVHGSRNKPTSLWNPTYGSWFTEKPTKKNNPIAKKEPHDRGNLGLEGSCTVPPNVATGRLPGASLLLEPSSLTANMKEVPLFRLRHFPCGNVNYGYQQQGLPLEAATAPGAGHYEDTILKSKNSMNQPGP
Experimental: Briefly, each 96-well plate was coated with 100 μL/well of 10 μg/mL substrate (GST-PLC-γ) in Tris-buffered saline (TBS). […] The reaction was initiated by adding enzyme (30 ng/mL ALK) and was allowed to proceed at 37° C. for 15 minutes. Detection of the phosphorylated product was performed by adding 100 μL/well of Eu—N1 labeled PT66 antibody (Perkin Elmer #AD0041). […] Data analysis was performed using ActivityBase (IDBS, Guilford, UK). IC50 values were calculated by plotting percent inhibition versus log10 of the concentration of compound and fitting to the nonlinear regression sigmoidal dose-response (variable slope) equation in XLFit (IDBS, Guilford, UK).

[5] = target: T4, baculovirus-expressed JAK2 (Homo sapiens, UniProt O60674); experiment: JAK2 Kinase Assay (TRF detection); type: biochemical; settings: 0.2 μM ATP; average of two or more determinations; class symbols
T4 construct: host or cells: baculovirus expression system
T4 sequence (O60674 whole entry): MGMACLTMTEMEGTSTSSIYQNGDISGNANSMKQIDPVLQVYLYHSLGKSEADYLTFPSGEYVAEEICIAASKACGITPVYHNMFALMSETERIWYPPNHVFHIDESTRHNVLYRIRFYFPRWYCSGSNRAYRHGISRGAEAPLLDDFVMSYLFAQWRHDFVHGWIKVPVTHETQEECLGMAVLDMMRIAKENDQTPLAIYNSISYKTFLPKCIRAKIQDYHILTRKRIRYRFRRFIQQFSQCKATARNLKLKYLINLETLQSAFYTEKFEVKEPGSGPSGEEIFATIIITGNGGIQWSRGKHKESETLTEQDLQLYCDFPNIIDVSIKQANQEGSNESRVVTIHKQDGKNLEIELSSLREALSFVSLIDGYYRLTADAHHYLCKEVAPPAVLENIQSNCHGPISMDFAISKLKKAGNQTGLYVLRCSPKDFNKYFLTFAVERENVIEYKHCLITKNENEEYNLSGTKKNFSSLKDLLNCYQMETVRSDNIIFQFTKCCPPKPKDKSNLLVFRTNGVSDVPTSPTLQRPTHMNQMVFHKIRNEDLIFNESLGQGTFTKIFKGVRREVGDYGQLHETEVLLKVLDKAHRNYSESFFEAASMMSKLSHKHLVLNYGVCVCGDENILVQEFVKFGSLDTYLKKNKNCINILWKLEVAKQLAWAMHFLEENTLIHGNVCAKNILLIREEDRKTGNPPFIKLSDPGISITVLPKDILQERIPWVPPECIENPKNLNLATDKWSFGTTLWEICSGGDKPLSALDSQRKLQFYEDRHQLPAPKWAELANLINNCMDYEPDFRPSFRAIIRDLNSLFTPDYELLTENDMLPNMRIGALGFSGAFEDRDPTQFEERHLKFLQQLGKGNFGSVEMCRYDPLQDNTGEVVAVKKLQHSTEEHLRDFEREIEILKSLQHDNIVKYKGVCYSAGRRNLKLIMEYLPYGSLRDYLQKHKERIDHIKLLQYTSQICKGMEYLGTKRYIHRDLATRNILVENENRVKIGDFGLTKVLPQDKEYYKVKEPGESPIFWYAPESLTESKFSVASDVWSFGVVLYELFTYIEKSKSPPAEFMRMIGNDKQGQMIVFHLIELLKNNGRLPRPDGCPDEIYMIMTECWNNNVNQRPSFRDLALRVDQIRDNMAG
Experimental: Compounds were tested for their ability to inhibit the kinase activity of baculovirus-expressed JAK2 using the TRF detection system. IC50 runs were conducted in 96-well Costar high binding plates (Corning Costar #3922, Corning, N.Y.). The plates were coated first with 100 μL/well of 10 μg/mL Neutravidin (Pierce #31000, Rockford, Ill.) in TBS at 37° C. for 2 hours, followed by 100 μL/well of 1 μg/mL 15-mer peptide substrate (biotinyl-amino-hexanoyl-EQEDEPEGDYFEWLE-amide, Infinity Biotech Research and Resource, Aston, Pa.) at 37° C. for another hour. The JAK2 assay mixture (total volume=100 μL/well) consisting of 20 mM HEPES, pH 7.2, 0.2 μM ATP, 1 mM MnCl2, 0.1% BSA, and test compound (diluted in DMSO; 2.5% DMSO final in assay) was then added to the assay plate. Enzyme (15 ng/ml JAK2) was added and the reaction was allowed to proceed at room temperature for 20 minutes. Detection of the phosphorylated product was performed by adding 100 μL/well of Eu—N1 labeled PY100 antibody (PerkinElmer Life Sciences #AD0041, Boston, Mass.). Incubation at the room temperature then proceeded for 1 hour, followed by addition of 100 μl enhancement solution (PerkinElmer Life Sciences #1244-105, Boston, Mass.). The plate was gently agitated and after thirty minutes, the fluorescence of the resulting solution was measured using the PerkinElmer EnVision™ 2102 (or 2104) multi-label plate reader.
as §1

[6] = average of two or more determinations, class symbols

| IC50 [1, 6] [nM] | IC50 ([1]; given as numeric bound) [nM] | melting point [°C] | IC50 [2, 6] [nM] | IC50 ([2]; given as numeric bound) [nM] | IC50 [4] [nM] | IC50 [5] [nM] | Compound | ring closure, yield of all isomers [3] [%] |
| --- | --- | --- | --- | --- | --- | --- | --- | --- |
| 1000 to 10000 | > 2000 | 278 to 280 | < 10 | > 3000 | – | – | COc1cc(N2CCN(C)CC2)c2cc1Nc1ncc(Cl)c(n1)Nc1cc(ccc1N(C)S(C)(=O)=O)/C=C\2 [Example 4, (14Z)-6-Chloro-10-(2-methanesulfonyl-methyl-amino)-17-(4-methylpiperazin-1-yl)-19-methoxy-2,4,8,22-tetraazatetracyclo[14.3.1.1^3,7.1^9,13]docosa-1(20),3(22),4,6,9(21),10,12,14,16,18-decaene] | 72 |
| – | > 2000 | 244 to 246 | < 10 | – | 10 to 100 | 1000 to 10000 | COc1cc(C2CCN(C)CC2)c2cc1Nc1ncc(Cl)c(n1)Nc1cc(ccc1N(C)S(C)(=O)=O)/C=C\2 [Example 7, (14Z)-6-Chloro-10-(2-methanesulfonyl-methyl-amino)-17-(1-methyl-piperidin-4-yl)-19-methoxy-2,4,8,22-tetraazatetracyclo[14.3.1.1^3,7.1^9,13]docosa-1(20),3(22),4,6,9(21),10,12,14,16,18-decaene] | – |
| 10 to 100 | – | > 250 | < 10 | – | – | < 10 | CC(C)S(=O)(=O)c1ccc2cc1Nc1nc(ncc1Cl)Nc1ccc(N3CCN(C)CC3)c(c1)CC2 [Example 12, 6-Chloro-10-(propane-2-sulfonyl)-17-(4-methylpiperazin-1-yl)-2,4,8,22-tetraazatetracyclo[14.3.1.1^3,7.1^9,13]docosa-1(20),3(22),4,6,9(21),10,12,16,18-nonaene] | – |
| 101 to 1000 | – | > 250 | 10 to 100 | – | 10 to 100 | 10 to 100 | CN1CCN(c2ccc3cc2CCc2ccc(S(C)(=O)=O)c(c2)Nc2nc(ncc2Cl)N3)CC1 [Example 19, 6-Chloro-10-(methanesulfonyl)-17-(4-methylpiperazin-1-yl)-2,4,8,22-tetraazatetracyclo[14.3.1.1^3,7.1^9,13]docosa-1(20),3(22),4,6,9(21),10,12,16,18-nonaene] | – |
